According to patent publication US8501715B2, “Oxidized lipids and uses thereof in the treatment of inflammatory diseases and disorders” (Vascular Biogenics Ltd., priority 2003, dated 2013):

Assays:
apoE(−/−)CD1d(−/−) mice = conditions: administration of alpha-galactosylceramide; Tupin et al.; cited from earlier work
apoE(−/−) mice = conditions: administration of alpha-galactosylceramide; Tupin et al.; cited from earlier work
[1] = system: T-cells from inguinal lymph node; assay: Proliferation assay (stimulation index) of lymph node cells exposed to Human ox-LDL; format: in vivo; conditions: oral 1 mg/mouse every other day for 5 days
Description: 6 week old male Apo-E KO mice were fed either 1 mg/mouse L-ALLE (L-ALLE) (n=2) or POVPC (POVPC) (n=3) in 0.2 ml PBS; or PBS alone (CONTROL) (n=3) every other day for 5 days. One week following the last feeding the mice were immunized with a single subcutaneous injection of 50 μg Human oxidized LDL antigen. 7 days later T-cells from inguinal lymph node were prepared as described in Materials and Methods section that follows, and exposed to the sensitizing Human ox-LDL antigen for in-vitro assessment of proliferation. Proliferation, indicating immune reactivity, is expressed as the ratio between incorporation of labeled thymidine into the T-cell's DNA in the presence and absence of human ox-LDL antigen (stimulation index, S.I.).
II. […]
Proliferation was assayed eight days after immunization with the oxidized LDL as follows: Spleens or lymph nodes were prepared by meshing the tissues on 100 mesh screens. […] Incomplete medium was added (10 ml), cells were centrifuge for 7 minutes at 1,700 rpm, resuspended in RPMI medium and counted in a haemocytometer at 1:20 dilution (10 μl cells+190 μl Trypan Blue). Proliferation was measured by the incorporation of [^3H]-Thymidine into DNA in triplicate samples of 100 μl of the packed cells (2.5×10^6 cells/ml) in a 96 well microtiter plate. […]

Apo-E KO mice [2] = assay: Assessment of atherosclerosis: lesion area in the aortic sinus; format: in vivo, mouse; conditions: oral 1 mg/mouse
Apo-E KO mice [3] = assay: Aorta lesion (% from total area); format: in vivo; conditions: oral 1 mg/mouse, 5 feedings every other day every 4 weeks over 12 weeks; 24.5 week old mice; End
Source text: Assessment of Atherosclerosis: Quantification of atherosclerotic fatty streak lesions was done by calculating the lesion size in the aortic sinus as previously described (Paigen et al. Quantitative assessment of atherosclerotic lesions in mice. Atherosclerosis 1987; 68: […]) and by calculating the lesion size in the aorta. Briefly, after perfusion with saline Tris EDTA, the heart and the aorta were removed from the animals and the peripheral fat cleaned carefully. The upper section of the heart was embedded in OCT medium (10.24% w/w polyvinyl alcohol; 4.26% w/w polyethylene glycol; 85.50 w/w nonreactive ingredients) and frozen. […] Sections were evaluated for fatty streak lesions after staining with oil-red O. Lesion areas per section were scored on a grid (Rubin et al. Inhibition of early atherogenesis in transgenic mice by human apoplipoprotein A-I. Nature 1991; 353: 265-267) by an observer counting unidentified, numbered specimens. […]
Their effect on the triglyceride and cholesterol fractions of VLDL was also monitored by FPLC. […]
(§1) Mice were bled prior to feeding (Time 0), after the 2nd set of feeding and at the conclusion of the experiment (End) for determination of lipid profile, lipid fractionation and plasma collection. Atherosclerosis was assessed as described above in the aorta sinus and aorta. […] Weight was recorded every 2 weeks throughout the experiment. […]

[4] = FPLC analysis of triglyceride and cholesterol content of VLDL; format: in vivo; conditions: oral 1 mg/mouse, 3 sets over 12 weeks; measured 9 weeks from t=0; FPLC of pooled blood
Description: (§2) 24.5 weeks old Apo-E KO mice were fed 1 mg/mouse L-ALLE (triangle) (n=11), D-ALLE (inverted triangle) (n=9) or POVPC (square) (n=10) every other day for 5 days, at 4 weeks intervals over a 12 weeks period. Control mice were fed an identical volume (0.2 ml) and regimen of PBS (circle) (n=10). Triglyceride content (Tg, mg/ml) was measured 9 weeks from t=0, by enzymatic colorimetric method in the VLDL fractions following separation of pooled blood samples on FPLC, as described in the materials and methods section that follows.
as §2, with “Cholesterol” for “Triglyceride”, “(Cholesterol,” for “(Tg,”
FPLC Analysis: Fast Protein Liquid Chromatography analysis of cholesterol and lipid content of lipoproteins was performed using Superose 6 HR 10/30 column (Amersham Pharmacia Biotech, Inc, Peapack, N.J.) on a FPLC system (Pharmacia LKB. FRAC-200, Pharmacia, Peapack, N.J.). A minimum sample volume of 300 μl (blood pooled from 3 mice was diluted 1:2 and filtered before loading) was required in the sampling vial for the automatic sampler to completely fill the 200 μl sample loop. Fractions 10-40 were collected, each fraction contained 0.5 ml. A 250 μl sample from each fraction was mixed with freshly prepared cholesterol reagent or triglyceride reagent respectively, incubated for 5 minutes at 37° C. and assayed spectrophotometrically at 500 nm.
Their effect on the triglyceride and cholesterol fractions of VLDL was also monitored by FPLC. […] male, 24.5 week old Apo-E KO mice were divided into 5 groups. In group A (n=11) mice were fed with 1 mg/mouse L-ALLE suspended in 0.2 ml PBS, administered by gavage, as described above, every other day for 5 days. In group B (n=9) mice were fed with 1 mg/mouse D-ALLE suspended in 0.2 ml PBS, administered per os, as described above, every other day for 5 days. In group C (n=10) mice were fed with 1 mg/mouse POVPC suspended in 0.2 ml PBS, administered by gavage, as described above, every other day for 5 days. […]
as §1

SMILES | Lesion size (apoE(−/−)CD1d(−/−) mice) | increase in lesion size (apoE(−/−) mice) | change of Stimulation Index versus PBS ([1]; then immunization with Human oxidized LDL) | Stimulation Index (SI) ([1]; then s.c. immunization with Human oxidized LDL, lymph nodes one week later) | Sinus Lesion (Apo-E KO mice [2]; 5 feedings every other day every 4 weeks over 12 weeks, 24.5 week old mice, End (12 weeks after first feeding)) | protection from atheromatous progression (Apo-E KO mice [2]; late stage, compared with lesion scores at 24.5 weeks) | Aorta lesion (% from total area) (Apo-E KO mice [3]) | cholesterol content of VLDL [4] | triglyceride content of VLDL [4]
CCCCCCCCCCCCCCCCCCCCCCCCCC(=O)N[C@@H](CO[C@H]1O[C@H](CO)[C@H](O)[C@H](O)[C@H]1O)[C@H](O)[C@H](O)CCCCCCCCCCCCCC [alpha-galactosylceramide] | did not affect lesion size | 50% | – | – | – | – | – | – | –
CCCCCCCCCCCCCCCCOC[C@@H](COP(=O)([O-])OCC[N+](C)(C)C)OCCCCC=O [L-ALLE, 3-hexadecyl-2-(5′-oxo-pentanyl)-sn-glycero-1-phosphocholine] | – | – | −78% | 7.3 ± 2.3 | 233056 ± 12746 μm^2 | nearly complete protection | 5.4 % from total area | reduction | reduction
